Reference: ChEMBL document CHEMBL5532764, “Identification of SARS-CoV-2 Mpro inhibitors through deep reinforcement learning for de novo drug design and computational chemistry approaches” (RSC Med Chem, 2024)

target: Replicase polyprotein 1ab (Severe acute respiratory syndrome coronavirus 2, UniProt P0DTD1)

In order of rising IC50:
1. O=C(c1cccnc1)N1CCN(Cc2cc(Cl)cc(Cl)c2OC(F)F)CC1  63 µM
2. O=C(c1cccnc1)N1CCN(Cc2cccc(Cl)c2Cl)CC1  63.5 µM

target: Procathepsin L (Homo sapiens, UniProt P07711); assay: Inhibition of human liver Cathepsin L using Z-Phe-Arg7-amido-4-methylcoumarin hydrochloride as substrate by FRET assay
Sequence (P07711 whole entry): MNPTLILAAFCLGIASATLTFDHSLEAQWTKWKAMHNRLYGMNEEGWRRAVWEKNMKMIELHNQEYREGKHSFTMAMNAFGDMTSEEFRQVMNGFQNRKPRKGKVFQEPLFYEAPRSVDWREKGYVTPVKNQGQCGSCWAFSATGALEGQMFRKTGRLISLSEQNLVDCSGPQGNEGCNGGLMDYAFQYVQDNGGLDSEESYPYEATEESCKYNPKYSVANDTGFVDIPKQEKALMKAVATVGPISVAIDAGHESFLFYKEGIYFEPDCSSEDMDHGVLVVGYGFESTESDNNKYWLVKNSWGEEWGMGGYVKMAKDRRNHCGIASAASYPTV

`O=C(Cc1cccnc1)N1CCc2c(Cl)cc(Cl)cc2C1` and `Cc1cncc(CC(=O)N2CCc3cc(Cl)c(Cl)cc3C2)c1` cannot be ordered by IC50: over 125 µM for the first, over 125 µM for the second.

Compared with `O=C(Nn1cnc2c(F)cc(F)cc21)C1COc2cc(Cl)c(Cl)cc21` (racemic), `O=C(c1cncc2ccc(F)cc12)N1CCN(Cc2ccc(Cl)cc2Cl)CC1` is higher in IC50: 103 µM for the first, over 125 µM for the second.

`N#Cc1ccccc1CN1CCCN(C(=O)c2cncc(Cl)c2)CC1` and `O=C(c1cncc(Cl)c1)N1CCCN(Cc2ccccc2Cl)CC1` cannot be ordered by IC50: over 125 µM for the first, over 125 µM for the second.

`O=C(c1cccnc1)N1CCN(Cc2cccc(Cl)c2Cl)CC1` and `O=C(c1cccnc1)N1CCN(Cc2cc(Cl)cc(Cl)c2OC(F)F)CC1` cannot be ordered by IC50: over 125 µM for the first, over 125 µM for the second.

`Cc1cncc(CC(=O)N2CCC[C@H]2c2cccc(Cl)c2)c1` and `O=C1N[C@@H](Cc2cc(Cl)ccc2F)C(=O)N1c1cncc(F)c1` cannot be ordered by IC50: over 125 µM for the first, over 125 µM for the second.

`O=C1N(Cc2ccccc2Cl)CCN1c1cncc2ccc(Cl)cc12` and `O=C1N(Cc2ccc(Cl)cc2Cl)CCN1c1cncc2ccccc12` cannot be ordered by IC50: over 125 µM for the first, over 125 µM for the second.
